From PMC6743424, “Phenolic acid phenethylesters and their corresponding ketones: Inhibition of 5‐lipoxygenase and stability in human blood and HepaRG cells” (Pharmacology Research & Perspectives, 2019) come the findings set out here.

Each structure is given as a SMILES string.

This assay has as its target T1, 5‐LO (Homo sapiens, UniProt P09917).
T1 sequence (P09917 1-674): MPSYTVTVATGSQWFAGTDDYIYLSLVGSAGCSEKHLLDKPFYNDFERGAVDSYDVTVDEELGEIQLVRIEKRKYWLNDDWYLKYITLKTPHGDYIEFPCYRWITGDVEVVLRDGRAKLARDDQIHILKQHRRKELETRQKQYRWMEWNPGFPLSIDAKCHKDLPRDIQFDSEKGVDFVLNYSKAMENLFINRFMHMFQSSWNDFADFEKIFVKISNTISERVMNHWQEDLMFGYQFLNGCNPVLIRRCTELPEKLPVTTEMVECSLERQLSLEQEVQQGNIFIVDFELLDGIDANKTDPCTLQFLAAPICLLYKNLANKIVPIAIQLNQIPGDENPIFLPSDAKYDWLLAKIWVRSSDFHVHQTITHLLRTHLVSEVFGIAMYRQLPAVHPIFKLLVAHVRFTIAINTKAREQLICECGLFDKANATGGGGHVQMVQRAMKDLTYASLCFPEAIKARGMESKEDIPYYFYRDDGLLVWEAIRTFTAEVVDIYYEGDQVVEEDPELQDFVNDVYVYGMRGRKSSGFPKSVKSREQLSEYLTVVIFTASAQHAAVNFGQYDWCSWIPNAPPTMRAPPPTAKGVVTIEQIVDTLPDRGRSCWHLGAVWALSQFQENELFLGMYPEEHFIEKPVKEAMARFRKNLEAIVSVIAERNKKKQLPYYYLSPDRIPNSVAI
In words: Biosynthesis of 5‐LO products in stimulated HEK293 cells expressing 5‐LO and FLAP. Format: cell-based. Further details: expressed in transfected cells; host or cells: HEK293 cells (ATCC), stably transfected. The following applies: 1 μmol/L, 5 min preincubation; 10 μmol/L A23187 + 10 μmol/L arachidonic acid 15 min. As to the method:
HEK293 cells were obtained from ATCC (Manassas) and were cultured in Dulbecco’s Modified Eagle Medium (DMEM) supplemented with 10% fetal bovine serum. Cells were stably transfected with 5‐lipoxygenase and 5‐lipoxygenase activating protein (FLAP) as previously described.31
Transfected HEK293 cells were collected and resuspended in Hank's balanced salt solution (HBSS, Lonza) containing 1.6 mmol/L CaCl2 at a concentration of 5 × 10^5 cells/mL, and were preincubated with each compound at concentration of 1 µmol/L for 5 minutes at 37°C. Cells were then stimulated for 15 minutes at 37°C with the addition of 10 µmol/L calcium ionophore A23187 (Sigma‐Aldrich) and 10 µmol/L arachidonic acid (Cayman Chemical).28 Stimulations were stopped by adding 0.5 volume of cold CH3OH:CH3CN (1:1) containing 100 ng/mL of prostaglandin B2 (PGB2) as internal standard. Samples were stored at −20°C and analyzed for 5‐LO products using reversed‐phase high‐performance liquid chromatography (RP‐HPLC) as described previously.32
Figure 2 The structures of the tested compounds (A) and their effects on the biosynthesis of 5‐LO products in transfected HEK293 cells (B). HEK293 cells expressing 5‐LO and FLAP were incubated in presence of the indicated compounds (1 μmol/L) or their diluent (Control, 0.1% DMSO) for 5 minutes, followed by the addition of 10 μmol/L calcium ionophore A23187 and 10 μmol/L arachidonic acid for 15 minutes. Reactions were then stopped, and samples were processed for analysis of 5‐LO products using RP‐HPLC. Total 5‐LO products measured represent the sum of LTB4, its trans isomers and 5‐hydroxyeicosatetraenoic acid. Data are expressed as means ± SEM of at least three independent experiments. *Difference from control as determined using one‐way ANOVA with Dunnett's multiple comparison test (P < .05)

`O=C(/C=C/c1cc(O)ccc1O)OCCc1ccccc1` [compound 5]: the “Inhibition of biosynthesis of 5‐LO products in transfected HEK293 cells” value is listed as “very good inhibitory activity”.
